We go through eleven compounds from patent US20100150834A1, “HIGH AFFINITY EPHB RECEPTOR BINDING COMPOUNDS AND METHODS OF USE THEREOF” (priority 2006, published 2010).

No end group written: not given here.

One series concerns EphB1. As to the kind of experiment: EphB receptor specificity (% binding), Table 1. The note with it: binding to EphB1.
The target in another series is EphB2 (Homo sapiens, UniProt P29323). As to the kind of experiment: EphB receptor specificity (% binding), Table 1. The following applies: binding to EphB2.
EphB2, sequence (P29323 19-1055): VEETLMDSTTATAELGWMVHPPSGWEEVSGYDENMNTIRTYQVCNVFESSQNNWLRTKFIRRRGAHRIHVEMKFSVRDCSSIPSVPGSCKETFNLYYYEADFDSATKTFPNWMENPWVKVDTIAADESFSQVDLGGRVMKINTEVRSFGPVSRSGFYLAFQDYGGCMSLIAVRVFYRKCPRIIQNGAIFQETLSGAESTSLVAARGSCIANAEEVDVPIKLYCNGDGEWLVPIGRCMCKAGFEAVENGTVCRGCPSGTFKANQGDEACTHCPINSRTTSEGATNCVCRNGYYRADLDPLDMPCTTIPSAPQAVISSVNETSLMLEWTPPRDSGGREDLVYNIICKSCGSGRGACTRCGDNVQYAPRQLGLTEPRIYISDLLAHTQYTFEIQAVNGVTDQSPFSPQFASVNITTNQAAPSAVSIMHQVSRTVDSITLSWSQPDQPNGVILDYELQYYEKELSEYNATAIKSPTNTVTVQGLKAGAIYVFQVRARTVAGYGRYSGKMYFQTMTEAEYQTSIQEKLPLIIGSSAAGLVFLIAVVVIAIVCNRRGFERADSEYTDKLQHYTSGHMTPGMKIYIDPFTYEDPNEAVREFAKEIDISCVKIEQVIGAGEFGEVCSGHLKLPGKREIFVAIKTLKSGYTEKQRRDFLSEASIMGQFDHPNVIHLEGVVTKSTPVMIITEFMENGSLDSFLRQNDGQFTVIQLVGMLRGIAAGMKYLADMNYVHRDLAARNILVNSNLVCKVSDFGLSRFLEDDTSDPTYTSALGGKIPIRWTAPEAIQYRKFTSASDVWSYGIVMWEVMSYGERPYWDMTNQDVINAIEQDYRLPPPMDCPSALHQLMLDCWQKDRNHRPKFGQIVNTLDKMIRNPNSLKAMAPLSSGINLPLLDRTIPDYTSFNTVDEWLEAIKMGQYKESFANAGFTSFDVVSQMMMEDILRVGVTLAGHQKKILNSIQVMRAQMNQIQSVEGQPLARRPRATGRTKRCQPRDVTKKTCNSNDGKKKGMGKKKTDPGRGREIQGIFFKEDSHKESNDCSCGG

In the case of `CC[C@H](C)[C@H](NC(=O)[C@@H]1CCCN1C(=O)CNC(=O)[C@H](CC(N)=O)NC(=O)[C@@H]1CCCN1C(=O)[C@H](CO)NC(=O)[C@H](Cc1ccccc1)NC(=O)[C@H](CC(C)C)NC(=O)[C@H](Cc1ccc(O)cc1)NC(=O)[C@H](CC(N)=O)NC(=O)[C@@H](N)[C@@H](C)O)C(=O)N[C@@H](C)C(=O)O` [compound 24], in the series on EphB1, the “EphB Receptor Specificity (% Binding) B1” value amounted to 5%.

Turning to `CC[C@H](C)[C@H](NC(=O)[C@H](C)NC(=O)[C@H](Cc1ccccc1)NC(=O)[C@@H]1CCCN1C(=O)[C@H](CCC(=O)O)NC(=O)[C@@H](NC(=O)[C@@H](NC(=O)[C@H](Cc1c[nH]c2ccccc12)NC(=O)[C@H](Cc1c[nH]cn1)NC(=O)[C@@H](N)Cc1c[nH]c2ccccc12)[C@@H](C)O)[C@@H](C)CC)C(=O)N[C@H](C(=O)N[C@@H](CO)C(=O)O)[C@@H](C)O` [compound 8], in the series on EphB1, the “EphB Receptor Specificity (% Binding) B1” value was 99%.

Consider `CC[C@H](C)[C@H](NC(=O)[C@H](CCCNC(=N)N)NC(=O)[C@H](Cc1c[nH]c2ccccc12)NC(=O)[C@H](Cc1c[nH]cn1)NC(=O)[C@@H](N)CC(=O)O)C(=O)N[C@@H](CC(C)C)C(=O)N1CCC[C@H]1C(=O)N[C@@H](Cc1ccccc1)C(=O)N[C@@H](CO)C(=O)N[C@@H](CC(C)C)C(=O)N[C@@H](CO)C(=O)N[C@@H](CO)C(=O)O` [compound 10], for which, in the series with EphB1, the “EphB Receptor Specificity (% Binding) B1” value amounted to 53%.

In the case of EWYMKFPPEHYF [compound 19], the “EphB Receptor Specificity (% Binding) B1” value in the series with EphB1 turned out to be 22%.

`CC[C@H](C)[C@H](NC(=O)[C@@H]1CCCN1C(=O)[C@H](Cc1c[nH]c2ccccc12)NC(=O)[C@H](Cc1c[nH]cn1)NC(=O)[C@@H](N)CO)C(=O)N[C@@H](CO)C(=O)N1CCC[C@H]1C(=O)N[C@@H](Cc1ccc(O)cc1)C(=O)N[C@@H](CO)C(=O)N[C@@H](CC(C)C)C(=O)N[C@@H](CC(C)C)C(=O)N[C@@H](CO)C(=O)O` [compound 14]: in the series on EphB1, the “EphB Receptor Specificity (% Binding) B1” value came out at 39%.

As to TYFDFQAWSIRA [compound 22], the “EphB Receptor Specificity (% Binding) B1” value in the series with EphB1 turned out to be 10%.

As to `CC[C@H](C)[C@H](NC(=O)[C@@H](NC(=O)[C@@H]1CCCN1C(=O)[C@@H](N)CC(N)=O)C(C)C)C(=O)NCC(=O)N1CCC[C@H]1C(=O)N[C@H](C(=O)N[C@@H](CCC(N)=O)C(=O)N[C@@H](CCCNC(=N)N)C(=O)N[C@@H](C)C(=O)N[C@@H](Cc1c[nH]c2ccccc12)C(=O)N[C@H](C(=O)O)[C@@H](C)O)[C@@H](C)CC` [compound 27], in the series on EphB1, the “EphB Receptor Specificity (% Binding) B1” value was found to be 1%.

As for FSPQGPAARNFA [compound 25], the “EphB Receptor Specificity (% Binding) B1” value in the series with EphB1 was found to be 13%.

On to DHNHNLYNPWRL [compound 21], for which, on EphB2, the “EphB Receptor Specificity (% Binding) B2” value worked out at 8%. In addition, in the series with EphB1, the “EphB Receptor Specificity (% Binding) B1” value is given as 9%.

For the compound TNYLFSPNGPIARAW [TNYL-RAW], the “stability in cell conditioned medium” value (cell conditioned medium in the absence of the cells (FIG. 3C)) is “rapidly lost”. Also, the “stability in cell culture medium with PC3 cells” value (medium replaced with fresh medium just before adding the peptide (FIG. 3B)) is on record as “remained intact for several hours”. Also, for the setting “mixture of protease inhibitors (aprotinin, PMSF, leupeptin, pepstatin) added to conditioned medium (FIG. 3D)”, the “stability in cell conditioned medium with protease inhibitors” value is given as “reduce peptide instability”.

On to `CC(C)C[C@H](NC(=O)[C@H](C)NC(=O)[C@@H](N)CC(=O)O)C(=O)N[C@@H](CC(N)=O)C(=O)N[C@@H](CC(=O)O)C(=O)N[C@@H](Cc1c[nH]c2ccccc12)C(=O)N[C@@H](CC(C)C)C(=O)N[C@@H](CC(C)C)C(=O)N[C@@H](Cc1ccccc1)C(=O)N[C@@H](CCCNC(=N)N)C(=O)N1CCC[C@H]1C(=O)N[C@@H](Cc1c[nH]c2ccccc12)C(=O)O` [compound 20], for which the “EphB Receptor Specificity (% Binding) B1” value in the series with EphB1 came out at 0%.
